One experiment relates to M. gallisepticum. The experiment in a line: M.I.C. against Mycoplasma in microtitre plates (Tanner and Wu). Type of experiment: cell-based. As to conditions: in vitro; for MIC: Mycoplasmoides gallisepticum. The method, then: The M.I.C. values of the compounds JA 1, JA 3, JA 5, JA 12, JA 42 and JA 43 were determined in vitro against M. gallisepticum. Enrofloxacin, tylosin and oxytetracyclin were used as reference compounds. The tested compounds were all stored and applied as solutions in distilled water. The M.I.C. evaluation was performed in microtitre plates, and the methodology employed was basically that of Tanner and Wu (Avian Disease, 36:714-717 (1992)).

For experiment [1], the system named is Micrococcus Luteus (ATCC 9341). The experiment in a line: M.I.C. by broth dilution method (NCCLS 1988), gram-positive bacteria. Type of experiment: cell-based. The note with it: ATCC9341, in vitro broth dilution, read-out: M.I.C. values Microc. Luteus. How it is done:
(§1) The antibacterial activity of the present compounds was investigated by in vitro evaluation of their M.I.C. (Minimum Inhibitory Concentration) values. The evaluation was conducted in complete accordance with the “Broth dilution method”, as outlined by the U.S. National Committee for Clinical Laboratory Standards “NCCLS 1988”.
(§2) Solutions of the present compounds were prepared by dissolving 0.01 g of a test compound in either 10% KOH (aq) or a 10% KOH/DMF mixture, after which sterile, distilled H2O was added up to a total volume of 10 ml, thereby yielding a test compound concentration of 1 000 μg/ml.
(§3) In this evaluation, the antibacterial activity of the present compounds and enrofloxacin as reference compound was tested against seven strains of gram-positive bacteria, namely Bacillus subtilus (ATCC 6633), Bacillus cereus, Streptococcus faecium, Micrococcus Luteus (ATCC 9341), Staph. aureus (ATCC 29737), Staph. epidermidis (ATCC 12228) and Staphylococcus (ATCC 6538).

The test system of experiment [2] is Bacillus subtilus (ATCC 6633). The description is as above. Type of experiment: cell-based. The note with it: ATCC6633, in vitro broth dilution. How it is done: as §1, §2, §3
The subject of experiment [3] is Staph. aureus (ATCC 29737). The experiment is described as above. Type of experiment: cell-based. As to conditions: Staphylococcus aureus, ATCC29737, in vitro broth dilution. How it is done: as §1, §2, §3
Experiment [4] has as its system Staphylococcus (ATCC 6538). Described as above. Type of experiment: cell-based. As to conditions: ATCC6538, in vitro broth dilution, read-out: M.I.C. values Staph. (ATCC 6538). How it is done:
as §1, §2, §3

Experiment [5] deals with Staph. epidermidis (ATCC 12228). The experiment is described as above. As to conditions: Staphylococcus epidermidis, ATCC12228, in vitro broth dilution. Type of experiment: cell-based. The method, then: as §1, §2, §3
Another experiment relates to Streptococcus faecium. Described as above. Type of experiment: cell-based. The note with it: Enterococcus faecium, in vitro broth dilution, read-out: M.I.C. values Streptoc. faecium. How it is done:
as §1, §2, §3

Another experiment concerns Bacillus cereus. The experiment is described as above. Type of experiment: cell-based. The note with it: in vitro broth dilution. The method, then: as §1, §2, §3
Another experiment deals with T. evansi. The experiment in a line: Antitrypanosomal activity in vivo in white albino rats (Giemsa blood smears). The note with it: individual animals. The method, then: The antitrypanosomal activity of the present compounds was evaluated in vivo on 40 white albino rats. The rats were divided into 4 groups of 10 rats each. The rats were then inoculated intraperitoneally with 10^3 organisms of T. evansi (isolated from blood of naturally infected camels) in accordance with known methodology (see Kolmer, J. A., J. Infect. Dis., 17:78-95 (1915)). The progress of the infection was monitored with the aid of standard Giemsa procedure (see Cruickshank, R., Handbook of Bacteriology, E and S Livingstone Ltd., Edinborough and London, 1961), whereby peripheral blood samples from the rats were examined under microscope. The number of Trypanosoma organisms in every blood sample was calculated and classified as follows (the numbers below are given for fields examined on a microscope slide): • +++=>10 organisms • ++=5-10 organisms • +=1-4 organisms • 0=no organisms detected
On day 1 post infection, each group of rats was subcutaneously injected with a single dose of tested compound in an amount of 50.0 mg/kg body weight. The following drugs were administered:
Group #4: saline solution (control group)

Experiment [6] has as its system E. mitis, E. hagani, E. praecox, E. acervulina, E. maxima, E. necatrix, E. tenella and E. brunetti. The experiment in a line: Prophylactic anticoccidial effect, additional trials in chickens of Habbared X breed (8 Eimeria strains). Type of experiment: in vivo. As to conditions: B700 100 ppm. How it is done: In yet another evaluation of the prophylactic anticoccidial effect of the present compounds, additional trials on chickens of Habbared X breed were performed. The same test protocol as the one previously employed for this breed of chickens was used, albeit with the following following modifications: • i) On day 8 after hatch, the chickens received feed containing B700 (100 ppm), JA 3 (200 ppm) or Coxistac (100 ppm); • ii) On day 11 after hatch, the chickens were infected orally by oocysts containing a mixture of 8 mature sporulated strains, namely E. mitis, E. hagani, E. praecox, E. acervulina, E. maxima, E. necatrix, E. tenella and E. brunetti. The results of this evaluation were slightly unexpected.

[7] abbreviates: day 1 post infection (day of dosing), single s.c. dose 50.0 mg/kg.
Where [8] appears, read: day 3 post infection, single s.c. dose 50.0 mg/kg on day 1, 50 mg/kg.
Setting [9] is: day 9 post infection, single s.c. dose 50.0 mg/kg on day 1, 50 mg/kg.
Where [10] appears, read: day 11 post infection, single s.c. dose 50.0 mg/kg on day 1, 50 mg/kg.
[11] abbreviates: day 5 post infection, single s.c. dose 50.0 mg/kg on day 1, 50 mg/kg.
Where [12] appears, read: day 7 post infection, single s.c. dose 50.0 mg/kg on day 1, 50 mg/kg.
Setting [13] is: day 13 post infection, single s.c. dose 50.0 mg/kg on day 1, 50 mg/kg.

≈ marks a conversion by molar mass, not a printed value. Where “and” joins values, the source holds several entries; their conditions need not be identical. Identical values can stand only once.

In the case of `O=C(O)c1cn(C2CC2)c2cc(N3CCN(S(=O)(=O)c4ccc(Cl)s4)CC3)c(F)cc2c1=O` [JA 43, 7-{4-[(5-chloro-2-thienyl)sulfonyl]-1-piperazinyl}-1-cyclopropyl-6-fluoro-4-oxo-1,4-dihydro-3-quinolinecarboxylic acid], the MIC came to 0.25 µg/mL (≈ 0.488 µM) in the experiment with M. gallisepticum (microtitre plates); 1 µg/mL (≈ 1.95 µM) in [1]; 0.25 µg/mL (≈ 0.488 µM) in [2]; 0.12 µg/mL (≈ 0.234 µM) in experiment [3]; 0.03 µg/mL (≈ 0.0586 µM) in experiment [4]; 0.25 µg/mL (≈ 0.488 µM) in [5]. The figures for the MIC with Streptococcus faecium and against Bacillus cereus were 1 µg/mL (≈ 1.95 µM) and 0.12 µg/mL (≈ 0.234 µM), respectively.
Turning to `O=C(O)c1cn(C2CC2)c2cc(N3CCC(CNC(=S)Nc4ccccc4)CC3)c(F)cc2c1=O` [JA 110, 7-(4-{[(anilinocarbothioyl)amino]methyl}-1-piperidinyl)-1-cyclopropyl-6-fluoro-4-oxo-1,4-dihydro-3-quinolinecarboxylic acid], the “Number of T. evansi per examined field” value with T. evansi (setting [7]) is “+ (+=1-4 organisms)”; with T. evansi (setting [8]), “++ (++=5-10 organisms)”; with T. evansi (day 5 post infection, single s.c. dose 50.0 mg/kg on day 1) it was “++ (++=5-10 organisms)”; in the experiment on T. evansi (day 7 post infection, single s.c. dose 50.0 mg/kg on day 1), “++ (++=5-10 organisms)”; in the experiment on T. evansi (setting [9]), “+ (+=1-4 organisms) and 0 (0=no organisms detected) (9×)”; with T. evansi (setting [10]) it was “+ (+=1-4 organisms) and 0 (0=no organisms detected) (9×)”. Moreover, the “Number of T. evansi per examined field” value with T. evansi (day 13 post infection, single s.c. dose 50.0 mg/kg on day 1) was 0 (0=no organisms detected).
`CC[C@H]1OC(=O)C[C@@H](O)[C@H](C)[C@@H](O[C@@H]2O[C@H](C)[C@@H](O[C@H]3C[C@@](C)(O)[C@@H](O)[C@H](C)O3)[C@H](N(C)C)[C@H]2O)[C@@H](CC=O)C[C@@H](C)C(=O)/C=C/C(C)=C/[C@@H]1CO[C@@H]1O[C@H](C)[C@@H](O)[C@@H](OC)[C@H]1OC` [Tylosin, tylosin, reference compound]: the MIC in the experiment on M. gallisepticum (microtitre plates) was 0.06 µg/mL (≈ 0.0655 µM).
`O=C(O)c1cn(C2CC2)c2cc(NCc3ccncc3)c(F)cc2c1=O` [JA 68, 1-cyclopropyl-6-fluoro-4-oxo-7-[(4-pyridinylmethyl)amino]-1,4-dihydro-3-quinolinecarboxylic acid]: the MIC turned out to be 2 µg/mL (≈ 5.66 µM) in experiment [1]; 0.12 µg/mL (≈ 0.34 µM) in [2]; 0.12 µg/mL (≈ 0.34 µM) in experiment [3]; 0.12 µg/mL (≈ 0.34 µM) in [4]; 0.25 µg/mL (≈ 0.708 µM) in [5]; 1 µg/mL (≈ 2.83 µM) in the experiment with Streptococcus faecium. In addition, in the experiment on Bacillus cereus, the MIC turned out to be 0.06 µg/mL (≈ 0.17 µM). Moreover, the “Number of T. evansi per examined field” value was “+ (+=1-4 organisms)” in the experiment on T. evansi (setting [7]); “++ (++=5-10 organisms) (9×) and 0 (0=no organisms detected)” in the experiment with T. evansi (setting [8]); 0 (0=no organisms detected) (8×) and ++ (++=5-10 organisms) (2×) in the experiment on T. evansi (setting [11]); “+++ (+++=>10 organisms) and 0 (0=no organisms detected) (9×)” in the experiment on T. evansi (setting [12]); 0 (0=no organisms detected) (9×) and dead with T. evansi (setting [9]); 0 (0=no organisms detected) (9×) and dead with T. evansi (setting [10]). Besides, the “Number of T. evansi per examined field” value in the experiment on T. evansi (setting [13]) is 0 (0=no organisms detected) (9×) and dead.
Take `O=C(O)c1cn(C2CC2)c2cc(N3CCN(C(=O)Nc4ccc([N+](=O)[O-])cc4)CC3)c(F)cc2c1=O` [B700, 1-cyclopropyl-6-fluoro-7-{4-[(4-nitroanilino)carbonyl]-1-piperazinyl}-4-oxo-1,4-dihydro-3-quinolinecarboxylic acid]: the “anticoccidial activity (in words)” value in [6] (JA 3 200 ppm in feed from day 8, infected day 11) is “significant anticoccidial activity”. In experiment [6] (JA 3 200 ppm, Coxistac 100 ppm), the “increased body weight gain as compared to the Coxistac treated group” value is on record as “approximately 10%” and the “total number of oocysts during the treatment compared to Coxistac group” value is “higher than for the group treated with Coxistac”.
With `CN(C)[C@@H]1C(=O)C(C(N)=O)=C(O)[C@@]2(O)C(=O)C3=C(O)c4c(O)cccc4[C@@](C)(O)[C@H]3[C@H](O)[C@@H]12` [Oxytetracyclin, oxytetracyclin, reference compound], the “M.I.C. values against M. gallisepticum” value in the experiment on M. gallisepticum (microtitre plates) was 0.12.
Turning to `O=C(O)c1cn(C2CC2)c2cc(N3CCN(S(=O)(=O)c4ccccc4)CC3)c(F)cc2c1=O` [JA 1, 1-cyclopropyl-6-fluoro-4-oxo-7-[4-(phenylsulfonyl)-1-piperazinyl]-1,4-dihydro-3-quinolinecarboxylic acid], the MIC came out at 0.03 µg/mL (≈ 0.0636 µM) in the experiment on M. gallisepticum (microtitre plates); 0.5 µg/mL (≈ 1.06 µM) in experiment [1]; 0.06 µg/mL (≈ 0.127 µM) in [2]; 0.12 µg/mL (≈ 0.255 µM) in experiment [3]; 0.06 µg/mL (≈ 0.127 µM) in experiment [4]; 0.06 µg/mL (≈ 0.127 µM) in experiment [5]. Also, the MIC is 0.5 µg/mL (≈ 1.06 µM) with Streptococcus faecium and 0.06 µg/mL (≈ 0.127 µM) in the experiment on Bacillus cereus. Also, the “antibacterial activity against M. gallisepticum (in words)” value with M. gallisepticum is “high antibacterial activity”.
As to `CCN1CCN(c2cc3c(cc2F)c(=O)c(C(=O)O)cn3C2CC2)CC1` [Enrofloxacin, enrofloxacin, reference compound], the MIC in the experiment with M. gallisepticum (microtitre plates) was 0.06 µg/mL (≈ 0.167 µM); in [1] it was 2 µg/mL (≈ 5.56 µM); in experiment [2], 0.5 µg/mL (≈ 1.39 µM); in [3], 0.25 µg/mL (≈ 0.696 µM); in experiment [4], 0.12 µg/mL (≈ 0.334 µM); in experiment [5] it was 0.12 µg/mL (≈ 0.334 µM). Moreover, the figures for the MIC in the experiment on Streptococcus faecium and in the experiment with Bacillus cereus were 1 µg/mL (≈ 2.78 µM) and 0.25 µg/mL (≈ 0.696 µM), respectively.
`CC(C)c1ccc(Nc2cc3c(cc2F)c(=O)c(C(=O)O)cn3C2CC2)cc1` [JA 74, 1-cyclopropyl-6-fluoro-7-(4-isopropylanilino)-4-oxo-1,4-dihydro-3-quinolinecarboxylic acid]: the MIC in experiment [1] stood at 2 µg/mL (≈ 5.26 µM); in experiment [2], 0.12 µg/mL (≈ 0.315 µM); in experiment [3], 0.12 µg/mL (≈ 0.315 µM); in [4] it was 0.12 µg/mL (≈ 0.315 µM); in [5] it was 0.12 µg/mL (≈ 0.315 µM); in the experiment with Streptococcus faecium it was 2 µg/mL (≈ 5.26 µM). For the same compound, the MIC against Bacillus cereus is 0.12 µg/mL (≈ 0.315 µM). Also, the “Number of T. evansi per examined field” value with T. evansi (setting [7]) is “+ (+=1-4 organisms)”; with T. evansi (setting [8]) it was “++ (++=5-10 organisms)”; with T. evansi (setting [11]), “+++ (+++=>10 organisms) and 0 (0=no organisms detected) (6×) and ++ (++=5-10 organisms) (2×) and + (+=1-4 organisms)”; in the experiment on T. evansi (setting [12]) it was “dead and 0 (0=no organisms detected) (9×)”; with T. evansi (setting [9]), “dead and 0 (0=no organisms detected) (9×)”; in the experiment on T. evansi (setting [10]) it was “dead and 0 (0=no organisms detected) (9×)”. Also, in the experiment with T. evansi (setting [13]), the “Number of T. evansi per examined field” value is “dead and 0 (0=no organisms detected) (9×)”.
